Source: patent US8741836B2, “Polypeptides” (Novo Nordisk A/S, priority 2011, dated 2014)
Starred links: 1 amine or outer side, 2 acyl side, 3 side chain; linkers in the order of their positions; H or OH if unused. Positions of bridges follow the written chain, without caps; N, C: chain ends. Residues, ends and D or L forms follow the SMILES beside them. *: point of attachment. C20 diacid = O=C(O)CCCCCCCCCCCCCCCCCCC(=O)*; γGlu = O=C(O)[C@H](CCC(=O)[*:2])N[*:1]

Assay: Assay (III) ThT fibrillation assay for physical stability
Type: physicochemical
Conditions: for ThT pH 4.0 lag time: pH 4.0, ThT fibrillation assay
In short: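 Freshly prepared, pH-adjusted formulations with 1 μM ThT incubated at 37 °C under 960 rpm orbital shaking (1 mm), fluorescence (ex 444, em 485 nm) read every 20 min. […] Peptide content before and after measured by reverse-phase HPLC against pramlintide standard.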

Structure (SMILES) | ThT pH 4.0 lag time [h] | ThT pH 4.0 lag time (physical stability in fibrillogenesis assay) [h]
CC[C@H](C)[C@H](NC(=O)[C@@H]1CCCN1C(=O)CNC(=O)[C@H](Cc1ccccc1)NC(=O)[C@H](CC(N)=O)NC(=O)[C@H](CC(N)=O)NC(=O)[C@H](CO)NC(=O)[C@H](CO)NC(=O)[C@H](Cc1c[nH]cn1)NC(=O)[C@H](Cc1c[nH]cn1)NC(=O)[C@H](CC(C)C)NC(=O)[C@H](Cc1ccccc1)NC(=O)[C@H](CCC(=O)O)NC(=O)[C@H](C)NC(=O)[C@H](CC(C)C)NC(=O)[C@H](CCCNC(=N)N)NC(=O)[C@H](CCC(N)=O)NC(=O)[C@@H](NC(=O)[C@H](C)NC(=O)[C@@H]1CSSC[C@H](NC(=O)[C@H](CCCCN)NC(=O)CC[C@H](NC(=O)CCCCCCCCCCCCCCCCCCC(=O)O)C(=O)O)C(=O)N[C@@H](CC(N)=O)C(=O)N[C@@H]([C@@H](C)O)C(=O)N[C@@H](C)C(=O)N[C@@H]([C@@H](C)O)C(=O)N1)[C@@H](C)O)C(=O)N[C@@H](CC(C)C)C(=O)N1CCC[C@H]1C(=O)N1CCC[C@H]1C(=O)N[C@H](C(=O)N[C@@H](CC(N)=O)C(=O)N[C@@H](Cc1c[nH]cn1)C(=O)NCC(=O)N[C@@H](CO)C(=O)N[C@@H](CC(N)=O)C(=O)N[C@H](C(=O)N[C@@H](Cc1ccc(O)cc1)C(N)=O)[C@@H](C)O)[C@@H](C)O [Example 116, N-alpha-[(S)-4-Carboxy-4-(19-carboxynonadecanoylamino)butyryl]-[Glu14,His17,His32]-pramlintide] ({C20 diacid-γGlu}-KCNTATCATQRLAEFLHHSSNNFGPILPPTNHGSNTY-NH2; disulfide 2-7) | >45 | 
CC[C@H](C)[C@H](NC(=O)[C@@H]1CCCN1C(=O)CNC(=O)[C@H](Cc1ccccc1)NC(=O)[C@H](CC(N)=O)NC(=O)[C@H](CC(N)=O)NC(=O)[C@H](CO)NC(=O)[C@H](CO)NC(=O)[C@H](Cc1c[nH]cn1)NC(=O)[C@H](CCCNC(=N)N)NC(=O)[C@H](CC(C)C)NC(=O)[C@H](Cc1ccccc1)NC(=O)[C@H](CCC(=O)O)NC(=O)[C@H](C)NC(=O)[C@H](CC(C)C)NC(=O)[C@H](CCCNC(=N)N)NC(=O)[C@H](CCC(N)=O)NC(=O)[C@@H](NC(=O)[C@H](C)NC(=O)[C@@H]1CSSC[C@H](NC(=O)[C@H](CCC(=O)O)NC(=O)[C@H](CCCNC(=N)N)NC(=O)[C@H](CCC(=O)O)NC(=O)CC[C@H](NC(=O)CCCCCCCCCCCCCCCCCCC(=O)O)C(=O)O)C(=O)N[C@@H](CC(N)=O)C(=O)N[C@@H]([C@@H](C)O)C(=O)N[C@@H](C)C(=O)N[C@@H]([C@@H](C)O)C(=O)N1)[C@@H](C)O)C(=O)N[C@@H](CC(C)C)C(=O)N1CCC[C@H]1C(=O)N1CCC[C@H]1C(=O)N[C@H](C(=O)N[C@@H](CC(N)=O)C(=O)N[C@H](C(=O)NCC(=O)N[C@@H](CO)C(=O)N[C@@H](CC(N)=O)C(=O)N[C@H](C(=O)N1CCC[C@H]1C(N)=O)[C@@H](C)O)C(C)C)[C@@H](C)O [Example 124, N-alpha-[(S)-4-Carboxy-4-(19-carboxynonadecanoylamino)butyryl]-Glu-Arg-[Glu1,Glu14,Arg17,Pro37]-pramlintide] ({C20 diacid-γGlu}-ERECNTATCATQRLAEFLRHSSNNFGPILPPTNVGSNTP-NH2; disulfide 4-9 (inferred); C-terminus assumed) | >45 | >45
CC[C@H](C)[C@H](NC(=O)[C@@H]1CCCN1C(=O)CNC(=O)[C@H](Cc1ccccc1)NC(=O)[C@H](CC(N)=O)NC(=O)[C@H](CC(=O)O)NC(=O)[C@H](CO)NC(=O)[C@H](CO)NC(=O)[C@H](Cc1c[nH]cn1)NC(=O)[C@H](Cc1c[nH]cn1)NC(=O)[C@H](CC(C)C)NC(=O)[C@H](Cc1ccccc1)NC(=O)[C@H](CCC(=O)O)NC(=O)[C@H](C)NC(=O)[C@H](CC(C)C)NC(=O)[C@H](CCCNC(=N)N)NC(=O)[C@H](CCC(N)=O)NC(=O)[C@@H](NC(=O)[C@H](C)NC(=O)[C@@H]1CSSC[C@H](NC(=O)[C@H](CCCCN)NC(=O)CC[C@H](NC(=O)CCCCCCCCCCCCCCCCCCC(=O)O)C(=O)O)C(=O)N[C@@H](CC(N)=O)C(=O)N[C@@H]([C@@H](C)O)C(=O)N[C@@H](C)C(=O)N[C@@H]([C@@H](C)O)C(=O)N1)[C@@H](C)O)C(=O)N[C@@H](CC(C)C)C(=O)N1CCC[C@H]1C(=O)N1CCC[C@H]1C(=O)N[C@H](C(=O)N[C@@H](CC(N)=O)C(=O)N[C@H](C(=O)NCC(=O)N[C@@H](CO)C(=O)N[C@@H](Cc1c[nH]cn1)C(=O)N[C@H](C(=O)N[C@@H](Cc1ccc(O)cc1)C(N)=O)[C@@H](C)O)C(C)C)[C@@H](C)O [Example 128, N-alpha-[(S)-4-Carboxy-4-(19-carboxynonadecanoylamino)butyryl]-[Glu14,His17,Asp21,His35]-pramlintide] ({C20 diacid-γGlu}-KCNTATCATQRLAEFLHHSSDNFGPILPPTNVGSHTY-NH2; disulfide 2-7) | >45 | 
CC[C@H](C)[C@H](NC(=O)[C@@H]1CCCN1C(=O)CNC(=O)[C@H](Cc1ccccc1)NC(=O)[C@H](CC(N)=O)NC(=O)[C@H](CCC(N)=O)NC(=O)[C@H](CO)NC(=O)[C@H](CO)NC(=O)[C@H](Cc1c[nH]cn1)NC(=O)[C@H](Cc1c[nH]cn1)NC(=O)[C@H](CC(C)C)NC(=O)[C@H](Cc1ccccc1)NC(=O)[C@H](CCC(=O)O)NC(=O)[C@H](C)NC(=O)[C@H](CC(C)C)NC(=O)[C@H](CCCNC(=N)N)NC(=O)[C@H](CCC(N)=O)NC(=O)[C@@H](NC(=O)[C@H](C)NC(=O)[C@@H]1CSSC[C@H](NC(=O)[C@H](CCCCN)NC(=O)CC[C@H](NC(=O)CCCCCCCCCCCCCCCCCCC(=O)O)C(=O)O)C(=O)N[C@@H](CC(N)=O)C(=O)N[C@@H]([C@@H](C)O)C(=O)N[C@@H](C)C(=O)N[C@@H]([C@@H](C)O)C(=O)N1)[C@@H](C)O)C(=O)N[C@@H](CC(C)C)C(=O)N1CCC[C@H]1C(=O)N1CCC[C@H]1C(=O)N[C@H](C(=O)N[C@@H](CC(N)=O)C(=O)N[C@H](C(=O)NCC(=O)N[C@@H](CO)C(=O)N[C@@H](CC(N)=O)C(=O)N[C@H](C(=O)N1CCC[C@H]1C(N)=O)[C@@H](C)O)C(C)C)[C@@H](C)O [Example 130, N-alpha-[(S)-4-Carboxy-4-(19-carboxynonadecanoylamino)butyryl]-[Glu14,His17,Gln21,Pro37]-pramlintide] ({C20 diacid-γGlu}-KCNTATCATQRLAEFLHHSSQNFGPILPPTNVGSNTP-NH2; disulfide 2-7) | >45 | >45

Now from value to molecule:

ThT pH 4.0 lag time [h] | ThT pH 4.0 lag time (physical stability in fibrillogenesis assay) [h] | Structure (SMILES)
>45 | >45 | CC[C@H](C)[C@H](NC(=O)[C@@H]1CCCN1C(=O)CNC(=O)[C@H](Cc1ccccc1)NC(=O)[C@H](CC(N)=O)NC(=O)[C@H](CC(N)=O)NC(=O)[C@H](CO)NC(=O)[C@H](CO)NC(=O)[C@H](Cc1c[nH]cn1)NC(=O)[C@H](Cc1c[nH]cn1)NC(=O)[C@H](CC(C)C)NC(=O)[C@H](Cc1ccccc1)NC(=O)[C@H](CCC(=O)O)NC(=O)[C@H](C)NC(=O)[C@H](CC(C)C)NC(=O)[C@H](CCCNC(=N)N)NC(=O)[C@H](CCC(N)=O)NC(=O)[C@@H](NC(=O)[C@H](C)NC(=O)[C@@H]1CSSC[C@H](NC(=O)[C@H](CCCCN)NC(=O)CC[C@H](NC(=O)CCCCCCCCCCCCCCCCCCC(=O)O)C(=O)O)C(=O)N[C@@H](CC(N)=O)C(=O)N[C@@H]([C@@H](C)O)C(=O)N[C@@H](C)C(=O)N[C@@H]([C@@H](C)O)C(=O)N1)[C@@H](C)O)C(=O)N[C@@H](CC(C)C)C(=O)N1CCC[C@H]1C(=O)N1CCC[C@H]1C(=O)N[C@H](C(=O)N[C@@H](CC(N)=O)C(=O)N[C@H](C(=O)NCC(=O)N[C@@H](CO)C(=O)N[C@@H](CCC(N)=O)C(=O)N[C@H](C(=O)N1CCC[C@H]1C(N)=O)[C@@H](C)O)C(C)C)[C@@H](C)O [Example 135, N-alpha-[(S)-4-Carboxy-4-(19-carboxynonadecanoylamino)butyryl]-[Glu14,His17,Gln35,Pro37]-pramlintide] ({C20 diacid-γGlu}-KCNTATCATQRLAEFLHHSSNNFGPILPPTNVGSQTP-NH2; disulfide 2-7)
>45 | >45 | CC[C@H](C)[C@H](NC(=O)[C@@H]1CCCN1C(=O)CNC(=O)[C@H](Cc1ccccc1)NC(=O)[C@H](CC(N)=O)NC(=O)[C@H](CCC(N)=O)NC(=O)[C@H](CO)NC(=O)[C@H](CO)NC(=O)[C@H](Cc1c[nH]cn1)NC(=O)[C@H](Cc1c[nH]cn1)NC(=O)[C@H](CC(C)C)NC(=O)[C@H](Cc1ccccc1)NC(=O)[C@H](CCC(=O)O)NC(=O)[C@H](C)NC(=O)[C@H](CC(C)C)NC(=O)[C@H](CCCNC(=N)N)NC(=O)[C@H](CCC(N)=O)NC(=O)[C@@H](NC(=O)[C@H](C)NC(=O)[C@@H]1CSSC[C@H](NC(=O)[C@H](CCCCN)NC(=O)CC[C@H](NC(=O)CCCCCCCCCCCCCCCCCCC(=O)O)C(=O)O)C(=O)N[C@@H](CC(N)=O)C(=O)N[C@@H]([C@@H](C)O)C(=O)N[C@@H](C)C(=O)N[C@@H]([C@@H](C)O)C(=O)N1)[C@@H](C)O)C(=O)N[C@@H](CC(C)C)C(=O)N1CCC[C@H]1C(=O)N1CCC[C@H]1C(=O)N[C@H](C(=O)N[C@@H](CC(N)=O)C(=O)N[C@H](C(=O)NCC(=O)N[C@@H](CO)C(=O)N[C@@H](CCC(N)=O)C(=O)N[C@H](C(=O)N1CCC[C@H]1C(N)=O)[C@@H](C)O)C(C)C)[C@@H](C)O [Example 136, N-alpha-[(S)-4-Carboxy-4-(19-carboxynonadecanoylamino)butyryl]-[Glu14,His17,Gln21,Gln35,Pro37]-pramlintide] ({C20 diacid-γGlu}-KCNTATCATQRLAEFLHHSSQNFGPILPPTNVGSQTP-NH2; disulfide 2-7 (inferred))
